Values belong to the compound of their own block, whether it stands above or below them.
Key:
[1] = Time resolved fluorescence signal of streptavidin conjugate (Wallac Victor); assay type: physicochemical; settings: 50 nM in 100 uL; 400 us delay, 400 us read, cycle time 1000 us
Procedure: The reaction mixtures (549 ul) were then desalted into phosphate buffered saline containing 0.05% Tween 20 (PBS/Tween, Sigma) and 500 ul fractions were collected and assayed for protein content (Coomassie Blue Reagent, Biorad). The concentration of the pooled fractions (2 ml, 14 uM) was determined by Coomassie staining using streptavidin as a standard. […] 50 nM Cin-DTPA-SA gave 10,000 counts per second in 100 uL using these conditions. Improved labelling conditions yielding brighter conjugates, were obtained by freshly dissolving the Cin-DTPA-APA-chlorotriazine in 100% DMSO, increasing the pH of the reaction mixture to 9.0 in Bicarbonate buffer, and increasing the reaction time to approximately 16 hours at 4° C.

[2] = system: Cy5-labelled peptides; assay: Time resolved fluorescence resonance energy transfer from Cin-DTPA-SA to Cy5-labelled peptide; settings: 100 nM Cin-DTPA-SA; saturating concentrations of Cy5-peptide; λex=340 nm
Procedure: Cin-DTPA-SA (100 nM) in PBS/Tween was mixed with increasing concentrations (0.1-1000 nM) of N-Succ-(Cy5-NH-K)AERAQAGVVNASSRLAE(K-NH-Biotin)-CO2H (where underlined letters refer to single amino acid codes) prepared by reaction of the corresponding unlabelled peptide with the N-hydroxysuccinimide esters of biotin and Cy5 (Amersham). After 30 minutes incubation at room temperature, the fluorescence intensity of the sample (λex=340 nm, λem=615 nm or 664 nm) was determined using a time gate of 400 us, 400 us read time, 1000 us cycle time for europium (615 nm) fluorescence and a time gate of 70 us, 200 us read time, 1000 us cycle time for Cy5 (664 nm) fluorescence. The 615 nm fluorescence decreased in a peptide concentration dependent manner by 62-67% at saturating concentrations of Cy5-peptide whilst the 664 nm fluorescence increased in a saturable manner from 1000 counts/second to 8,000 counts/second at saturating concentration of peptide. […] In addition, titration of 10 nM Cin-DTPA-SA with biotinylated allophycocyanin (Bt-APC, 0.5-500 nM, Sigma) in PBS/Tween was associated with an increase in the fluorescence signal at 664 nm from 1000 counts/second to 3,500 counts/second at 500 nM Bt-APC, again indicating energy transfer from the chelate to the acceptor.
The Eu^3+ fluorescence decreases and the Cy5 fluorescence increases as the Cy5-labelled peptide is titrated in. […]

[3] = Excitation and emission spectra and time resolved fluorescence decays of Europium chelates; assay type: physicochemical
Procedure: Below are some typical excitation and emission spectra, alone with time resolved fluorescence decays for Europium chelates of this invention. All spectra and decay measurements were recorded on an Amino Bowman Spectrophotometer (model AB2), with a time resolution of 50 us.
The characteristic narrow emission bands of europium is observed at around 614 nm. The excitation spectrum for the 614 nm emission band peaks at 355 nm, and at least 50% of this intensity is achieved with excitation wavelengths up to 375 nm.
As with the vast majority of fluorescence compounds, the sensitiser group itself has a very short fluorescence lifetime. […] However, as is clearly shown by the decay traces the fluorescence of the Eu^3+ incorporated in the chelate (at 614 nm) has a characteristically long lifetime that enables a time-resolved discrimination between the Eu-containing chelate and other fluorescent compounds. The Eu fluorescence lifetime was fitted with a single exponential fit giving a lifetime of 633 us.

Compound: Cin-DTPA-SA: streptavidin labelled with Cinoxacin-DTPA-APA-chlorotriazene (D5) and loaded with Eu^3+
time resolved fluorescence signal [1]: 10,000 counts per second | decrease of 615 nm fluorescence [2]: 62-67%

decay of the chromophore ([3]; at 430 nm, in the presence of Eu^3+): too fast for detection
Compound: Cinoxacin-DTPA-Cinoxacin

fluorescence lifetime of the chromophore ([3]; at 421 nm, time resolution 50 us): too short to be reliably detected | Eu fluorescence lifetime ([3]; at 614 nm, single exponential fit): 633 us | emission bands of europium ([3]; in the presence of Eu^3+): around 614 nm | excitation spectrum peak for the 614 nm emission band ([3]; in the presence of Eu^3+): 355 nm | excitation wavelengths at which at least 50% of peak intensity is achieved ([3]; in the presence of Eu^3+, 614 nm emission): up to 375 nm
Compound: CCn1nc(C(=O)NCCNC(=O)CN(CCN(CCN(CC(=O)O)CC(=O)O)CC(=O)O)CC(=O)O)c(=O)c2cc3c(cc21)OCO3 [Cinoxacin-DTPA]

Reference: patent US6441167B1, “Cinoxacin lanthanide chelates and their use as biomolecular probes” (SmithKline Beecham plc, priority 1998, dated 2002)
